Measurements reported in US20150307938A1, “METHOD TO IDENTIFY A NOVEL CLASS OF IMMUNOLOGIC ADJUVANTS” (Lancell, L.L.C., priority 2011, published 2015).
Values joined by “and” are separate entries in the source; they are usually repeats but may differ in a detail not shown here. Equal entries are not always repeated.

Tested on: skin
Assay: Affymetrix microarray of skin, DBP-4 hr and analogs vs. untreated; gene selection by log-2 fold change, Wilcoxon, Kendall tau (Tables 8, 9)
Format: in vivo, mouse
Details: mouse, in vivo

CCCCOC(=O)c1ccccc1C(=O)OCCCC [DBP, dibutylphthalate]
AY026312 NM_133359_at ≧2-Fold change: No | Abcc3 (NM_029600_at) ≧2-Fold change: Yes | Acot5 (NM_145444_at) ≧2-Fold change: Yes | Actn2 NM_033268_at ≧2-Fold change: No | Adamts4 (NM_172845_at) ≧2-Fold change: Yes | Akap12 (NM_031185_at) ≧2-Fold change: Yes | Akr1c14 NM_134072_at ≧2-Fold change: No | Aldh7a1 NM_001127338_at ≧2-Fold change: No | Angptl4 (NM_020581_at) ≧2-Fold change: Yes | Aox4 NM_023631_at ≧2-Fold change: No | Arc (NM_018790_at) ≧2-Fold change: Yes | Arid5a (NM_145996_at) ≧2-Fold change: Yes | Arid5a (NR_033310_at) ≧2-Fold change: Yes | Asb5 NM_029569_at ≧2-Fold change: No | Atp2a2 NM_001110140_at ≧2-Fold change: No | Atp13a3 NM_001128094_at ≧2-Fold change: No | Atp13a3 NM_001128096_at ≧2-Fold change: No | Bcar3 (NM_013867_at) ≧2-Fold change: Yes | Bcl3 (NM_033601_at) ≧2-Fold change: Yes | Bcr NM_001081412_at ≧2-Fold change: No | Bhlhe40 (NM_011498_at) ≧2-Fold change: Yes | Calcb (NM_054084_at) ≧2-Fold change: Yes | Camk2g NM_001039138_at ≧2-Fold change: No | Camk2g NM_001039139_at ≧2-Fold change: No | Ccl1 (NM_011329_at) ≧2-Fold change: Yes | Ccl2 (NM_011333_at) ≧2-Fold change: Yes | Ccl3 (NM_011337_at) ≧2-Fold change: Yes | Ccl7 (NM_013654_at) ≧2-Fold change: Yes | Ccl8 NM_021443_at ≧2-Fold change: No | Ccl9 (NM_011338_at) ≧2-Fold change: Yes | Ccl12 (NM_011331_at) ≧2-Fold change: Yes | Ccl17 (NM_011332_at) ≧2-Fold change: Yes | Ccl20 (NM_016960_at) ≧2-Fold change: Yes | Ccl24 NM_019577_at ≧2-Fold change: No | Cd86 (NM_019388_at) ≧2-Fold change: Yes | Cd207 (NM_144943_at) ≧2-Fold change: Yes | Cd209d NM_130904_at ≧2-Fold change: No | Ckmt2 NM_198415_at ≧2-Fold change: No | Cldn8 NM_018778_at ≧2-Fold change: No | Clec4e (NM_019948_at) ≧2-Fold change: Yes | Clec4n NM_020001_at ≧2-Fold change: No | Clec7a (NM_020008_at) ≧2-Fold change: Yes | Clec4d (NM_010819_at) ≧2-Fold change: Yes | Clic4 (NM_013885_at) ≧2-Fold change: Yes | Cmya5 NM_023821_at ≧2-Fold change: No | Comp NM_016685_at ≧2-Fold change: No | Corin NM_016869_at ≧2-Fold change: No | Crem (NM_013498_at) ≧2-Fold change: Yes | Crispld1 NM_031402_at ≧2-Fold change: No | Cxcl10 NM_021274_at ≧2-Fold change: No | Cxcl16 (NM_023158_at) ≧2-Fold change: Yes | Cxcr6 NM_030712_at ≧2-Fold change: No | Cyr61 (NM_010516_at) ≧2-Fold change: Yes | Cyth1 NM_001112699_at ≧2-Fold change: No | Cyth1 NM_001112700_at ≧2-Fold change: No | Cytip (NM_139200_at) ≧2-Fold change: Yes | DBP LogFold-Change Versus-Untreated: 1600029D21Rik: 1.52 | DBP LogFold-Change Versus-Untreated: 1810055G02Rik: 0.89 | DBP LogFold-Change Versus-Untreated: 5730408K05Rik: 0.91 | DBP LogFold-Change Versus-Untreated: 1810011010Rik: 1.53 | DBP LogFold-Change Versus-Untreated: Abcc3: 1.09 | DBP LogFold-Change Versus-Untreated: Adam8: 1.94 | DBP LogFold-Change Versus-Untreated: Adamts4: 1.41 | DBP LogFold-Change Versus-Untreated: Angptl4: 2.61 | DBP LogFold-Change Versus-Untreated: Aqp3: 0.89 | DBP LogFold-Change Versus-Untreated: Arc: 1.90 | DBP LogFold-Change Versus-Untreated: Arid5a: 1.49 | DBP LogFold-Change Versus-Untreated: Bcar3: 1.08 | DBP LogFold-Change Versus-Untreated: Bcl3: 2.56 | DBP LogFold-Change Versus-Untreated: Bhlhe40: 1.26 | DBP LogFold-Change Versus-Untreated: Birc3: 1.02 | DBP LogFold-Change Versus-Untreated: Btg2: 1.56 | DBP LogFold-Change Versus-Untreated: Ccl2: 3.23 | DBP LogFold-Change Versus-Untreated: Ccl7: 3.11 | DBP LogFold-Change Versus-Untreated: Ccl12: 3.10 | DBP LogFold-Change Versus-Untreated: Ccl20: 5.93 | DBP LogFold-Change Versus-Untreated: Ccrn4l: 1.75 | DBP LogFold-Change Versus-Untreated: Cd44: 1.31 | DBP LogFold-Change Versus-Untreated: Cd86: 1.73 | DBP LogFold-Change Versus-Untreated: Cd207: 1.42 | DBP LogFold-Change Versus-Untreated: Cebpd: 1.58 | DBP LogFold-Change Versus-Untreated: Ch25h: 1.91 | DBP LogFold-Change Versus-Untreated: Cirh1a: 0.79 | DBP LogFold-Change Versus-Untreated: Cish: 1.12 | DBP LogFold-Change Versus-Untreated: Clec7a: 2.09 | DBP LogFold-Change Versus-Untreated: Clic4: 1.12 | DBP LogFold-Change Versus-Untreated: Coro2a: 0.88 | DBP LogFold-Change Versus-Untreated: Crem: 1.29 and 1.23 | DBP LogFold-Change Versus-Untreated: Csf2rb: 1.11
